Results: patent US20210322508A1, “PEPTIDES AND COMPOSITIONS FOR TARGETED TREATMENT AND IMAGING” (SIGNABLOK, INC., priority 2018, published 2021)
Non-standard residues stand in square brackets, D forms with d. Residues, ends and D or L forms follow the SMILES beside them. No end group written: not given here. Met(O) = CS(=O)CC[C@H](N)C(=O)O; PTX = not defined here

Tests used:
J774 macrophages = experiment: in vitro macrophage uptake (endocytosis) of rho B-labeled peptides and lipopeptide complexes; assay type: cell-based, murine; conditions: 1 h pretreatment: 40 μM cytochalasin D, 400 μg/mL fucoidan, 10 μM BLT-1; uptake 4 h and 22 h
Experimental: In Vitro Macrophage Uptake of GF9HDL and GA/E31HDL A quantitative in vitro macrophage assay of endo-cytosis of rho B-labeled HDL-mimicking lipopeptide complexes by J774 macrophage was performed as described. (18-20) Briefly, BALB/c murine macrophage J774A.1 cells (ATCC) were cultured at 37° C. with 5% CO2 in Dulbecco's modified Eagle's medium (Cellgro Mediatech, Manassas, Va.) with 2 mM glutamine, 100 U/mL penicillin, 0.1 mg/mL streptomycin, and 10% heat-inactivated fetal bovine serum (Cellgro Mediatech) and grown to approximately 90% confluency in 12-well tissue culture plates (Corning Costar, Corning, N.Y.).
Cells were washed twice using phosphate-buffered saline and lysed using Passive Lysis Buffer (Promega, Madison, Wis.). Rho B fluorescence was measured in the lysates with 544-nm excitation and 590-nm emission filters, using a Fluoroscan Ascent CF fluorescence microplate reader (Thermo Labsystems, Vantaa, Finland). Protein concentrations in the lysates were measured using Bradford reagent (Sigma-Aldrich) and an MRX microplate reader (Dynex Technologies, Chantilly, Va.) according to the manufacturer's recommended protocol.

PVNS patients = conditions: cited from earlier work
[1] = test system: DBA/1 mice with collagen-induced arthritis; experiment: Collagen-induced arthritis (CIA) model; conditions: 5 mg/kg i.p. daily 14 days, free peptides
Experimental: Animal studies were performed by Bolder BioPATH (Boulder, Colo., USA). CIA was induced in male 6- to 7-week-old DBA/1 mice by immunization with bovine type II collagen. Briefly, mice were injected intradermally with 100 μl of Freund's complete adjuvant containing 250 μg of bovine type II collagen (2 mg/ml final concentration) at the base of the tail on day 0 and again on day 21. On day 24, mice were randomized by body weight into treatment groups. […] Mice were weighed on study days 24, 26, 28, 30, 32, 34, 36 and 38 (prior to necropsy). Daily clinical scores were given on a scale of 0-5 for each of the paws on days 24-38. On day 38, mice were killed for necropsy.
At the end of study, fore paws, hind paws and knees were harvested, fixed in 10% neutral buffered formalin for 1-2 days, and then decalcified in 5% formic acid for 4-5 days before standard processing for paraffin embedding. Sections (8 μm) were cut and stained with toluidine blue (T blue). Hind paws, fore paws and knees were embedded and sectioned in the frontal plane. Six joints from each animal were processed for histopathological evaluation. The joints were then assessed using 0-5 scale for inflammation, pannus formation, cartilage damage, bone resorption and periosteal new bone formation. A summed histopathology score (sum of five parameters, 0-25 scale) was also determined.
Animal studies were performed by Bolder BioPATH (Boulder, Colo., USA). CIA was induced in male 6- to 7-week-old DBA/1 mice by immunization with bovine type II collagen. Briefly, mice were injected intradermally with 100 μl of Freund's complete adjuvant containing 250 μg of bovine type II collagen (2 mg/ml final concentration) at the base of the tail on day 0 and again on day 21. On day 24, mice were randomized by body weight into treatment groups. […] Starting day 24, mice were injected i.p. intraperitoneally daily for 14 consecutive days with 5 mg/kg G-KV21, G-HV21, G-TE21, M-TK32 and M-VE32 or with PBS (vehicle). Mice were weighed on study days 24, 26, 28, 30, 32, 34, 36 and 38 (prior to necropsy). Daily clinical scores were given on a scale of 0-5 for each of the paws on days 24-38. On day 38, mice were killed for necropsy.

[2] = test system: mice with collagen-induced arthritis (CIA); experiment: collagen-induced arthritis (CIA) in mice; conditions: CIA mice
From the text: As described herein, starting on day 24 after immunization, mice with CIA were intraperitoneally (i.p.) administered daily for 14 consecutive days with vehicle (black diamonds), dexamethasone (black squares), GF9 (white circles), GF9-LPC (black circles) and GA/E31-LPC (half black half white circles) at indicated doses. Daily clinical scores were given on a scale of 0-5 for each of the paws on days 24-38. On day 38, mice were killed and the histopathological examination of mouse joints was performed. Histopathological scores of inflammation (I), pannus (P), cartilage damage (CD), bone resorption (BR) and periosteal new bone formation (PBF) are shown. Summed histopathology scores were calculated as the sum of all five histopathological parameters. All results are expressed as the mean±SEM (n=10 mice per group).
Mouse body weight (BW) was measured every other day from day 24 to day 38. Mean BW changes were calculated as a percentage of the difference between beginning (day 24) and final (day 38) BWs of the CIA mice intraperitoneally (i.p.) treated daily for 14 consecutive days with vehicle, dexamethasone, GF9, GF9-LPC and GA/E31-LPC at indicated doses. All results are expressed as the mean±SEM (n=10 mice per group).
Plasma was collected on days 24, 30 and 38 from arthritic mice treated with vehicle (black diamonds), GF9 (white circles), GF9-LPC (black circles) and GA/E31-LPC (half black half white circles). Plasma samples were analyzed for concentrations of interleukin-1b (IL-1b), IL-6, and colony-stimulating factor 1 (CSF1). Results are expressed as the mean±SEM (n=5 mice per group).

TGCT patients = conditions: cited from earlier work
[3] = test system: Hepa 1-6 syngeneic hepatocellular carcinoma; conditions: orthotopic Hepa 1-6, Wu et al. 2019, cited from earlier work
human cancer xenografts = experiment: PTX-TREM-1/TRIOPEP tumor suppression in human cancer xenografts; assay type: in vivo; conditions: free and SLP-bound form
From the text: Tumor suppression studies using PTX-TREM-1/TRIOPEP formulations in free or SLP-bound form can be performed in animal models of cancer similarly as described herein (see e.g., the examples 7 and 8). Female 6-8 week old NU/J mice can be obtained from the Jackson Laboratory (Bar Harbor, Me.) Human cancer cell lines including but not limited to human carcinoma, human pancreas or human breast cancer cell lines can be obtained from ATCC. […] Human cancer xenografts are established by injecting subcutaneously into the right flanks certain amounts of viable cells per mouse. […] When tumor grows to approximately 125 mm^3 (100-150 mm^3), animals are pair-matched by tumor size into treatment and control groups. Either PTX (TAXOL®; 30 mg/kg PTX) or PTX-TREM-1/TRIOPEP formulations in free (60 mg/kg PTX) or SLP-bound (30 mg/kg PTX) are intravenously administered to the animals via tail vein. Clinical observations, body weights and tumor volume measurements are made twice a week once tumors become measureable. It should be noted that TAXOL® is formulated with a detergent Cremophor that in itself is cytotoxic and is also the source of numerous side effects during chemotherapy. The Cremophor content of TAXOL® is about 80× that of paclitaxel per ml.

[4] = target: T1, TREM-1 (triggering receptor expressed on myeloid cells-1) on murine J774A.1 macrophages (mouse, UniProt Q9JKE2 21-230); experiment: confocal immunofluorescence on macrophages, labelled peptide against TREM-1 staining; colocalisation only, no direct binding assay
T1 construct: whole, on cells; the cells are murine
T1 sequence (looked up): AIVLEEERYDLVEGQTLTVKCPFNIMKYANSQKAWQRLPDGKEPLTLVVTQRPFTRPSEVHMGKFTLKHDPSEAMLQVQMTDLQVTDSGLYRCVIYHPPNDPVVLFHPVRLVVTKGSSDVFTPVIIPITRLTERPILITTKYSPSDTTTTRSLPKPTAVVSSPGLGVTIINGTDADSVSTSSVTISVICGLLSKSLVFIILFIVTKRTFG
Experimental: (§1) Immunofluorescence analysis of TREM-1 and TREM-1/TRIOPEP in the cell membrane was performed using the standard, well-known in the art methods as described in Shen and Sigalov J Cell Mol Med 2017, 21:2524-2534, and Rojas et al. 2018, herein incorporate by reference.
(§2) BALB/c murine macrophage J774A.1 cells were grown at 37° C. in six-well tissue culture plates containing glass coverslips. After reaching target confluency of approximately 50%, cells were incubated for 6 h at 37° C. with Dylight 488-labeled GF9 or TREM-1/TRIOPEP-sSLP that contained Dylight 488-labeled GE31. TREM-1 staining was performed was performed using an Alexa 647-labeled rat anti-mouse TREM-1 antibody (Bio-Rad, Hercules, Calif.). ProLong Gold Antifade DAPI (4′,6′-diamidino-2-phenylindole) mounting medium was used to mount coverslips, and the slides were photographed using an Olympus BX60 fluorescence microscope. Confocal imaging was performed with a Leica TCS SP5 II laser scanning confocal microscope.

[5] = target: T1, TREM-1 (triggering receptor expressed …); experiment: confocal immunofluorescence on macrophages; colocalisation only, no direct binding assay
Experimental: as §1, §2

Question: For CCCCCCC1CCCC1=NNC(N)=S (stereo not shown) [BLT-1, Blocker of lipid transport 1, reference compound], which “effect of scavenger receptor inhibitor on macrophage uptake of GF9-HDL and GA/E31-HDL” value (from here on “effect of scavenger receptor inhibitor”) (J774 macrophages) is on record?
Answer: similarly inhibited the uptake of the complexes at both time points but to a lesser extent

Question: With Cc1ccc(NC(=O)c2ccc(CN3CCN(C)CC3)cc2)cc1Nc1nccc(-c2cccnc2)n1 [Imatinib] as the molecule, how does the symptomatic improvement (PVNS patients; 16 of 22 patients assessable for symptoms) read?
Answer: 73%

Question: What about the “overall response rate per RECIST” value (PVNS patients; 27 evaluable patients, Cassier et al. 2012) of the same molecule?
Answer: 19%

Question: And the stable disease (PVNS patients; Twenty of 27 patients)?
Answer: 74%

Question: With CSCC[C@H](NC(=O)[C@H](CCC(=O)O)NC(=O)[C@H](CCC(=O)O)NC(=O)[C@H](CCC(N)=O)NC(=O)[C@H](Cc1c[nH]c2ccccc12)NC(=O)[C@H](CCCCN)NC(=O)[C@H](CCCCN)NC(=O)[C@H](CCC(N)=O)NC(=O)[C@H](Cc1ccccc1)NC(=O)[C@H](CC(=O)O)NC(=O)[C@H](CC(=O)O)NC(=O)[C@H](CC(C)C)NC(=O)[C@H](Cc1ccc(O)cc1)NC(=O)[C@@H]1CCCN1C(=O)[C@H](Cc1ccccc1)NC(=O)[C@H](Cc1ccc(O)cc1)NC(=O)[C@H](CCCCN)NC(=O)[C@H](CC(C)C)NC(=O)[C@@H](NC(=O)[C@@H]1CCCN1C(=O)[C@@H](NC(=O)[C@H](CCCCN)NC(=O)[C@H](Cc1c[nH]c2ccccc12)NC(=O)[C@@H](N)CCSC)[C@@H](C)O)[C@@H](C)O)C(=O)N[C@@H](CCC(=O)O)C(=O)N[C@@H](CC(C)C)C(=O)N[C@@H](Cc1ccc(O)cc1)C(=O)N[C@@H](CCCNC(=N)N)C(=O)N[C@@H](CCC(N)=O)C(=O)N[C@@H](CCCCN)C(=O)N[C@H](C(=O)N[C@@H](CCC(=O)O)C(=O)O)C(C)C [M-VE32] (H-MWKTPTLKYFPYLDDFQKKWQEEMELYRQKVE-OH) as the molecule, how does the “CIA severity; bone and cartilage damage” value [1] read?
Answer: ameliorates CIA and protects against bone and cartilage damage

Question: What about the “tolerability in arthritic mice (body weight changes)” value ([2]; day 24 to day 38) of the same molecule?
Answer: well-tolerated by arthritic mice

Question: What about the “arthritis (clinical arthritis score)” value ([2]; treatment days 24-38) of the same molecule?
Answer: ameliorate the disease

Question: With FC(F)(F)c1ccc(CNc2ccc(Cc3c[nH]c4ncc(Cl)cc34)cn2)cn1 [Pexidartinib] as the molecule, how does the tumor volume (TGCT patients; Phase 2 study) read?
Answer: prolonged regression in tumor volume in most patients

Question: And the liver toxicity (TGCT patients; Phase 3 study suspended)?
Answer: two reported cases of nonfatal, serious liver toxicity

Question: And the partial response (TGCT patients; extension study, 23 patients, Tap et al. 2015)?
Answer: 12 patients

Question: What about the stable disease (TGCT patients; extension study, 23 patients) of the same molecule?
Answer: 7 patients

Question: With C=C1[C@@H](C)[C@H]2[C@H](Cc3ccccc3)NC(=O)[C@]23[C@H](OC(C)=O)/C=C/[C@@](C)(O)C(=O)[C@@H](C)C/C=C/[C@H]3[C@@H]1O [cytochalasin D, reference compound] as the molecule, how does the “effect of scavenger receptor inhibitor” value (J774 macrophages) read?
Answer: significantly inhibited

Question: Which “tumor growth (and survival), standalone treatment” value [3] does the source give for “GLLSGSLVF [mGF9-G, control murine GF9-G peptide, reference compound]” here?
Answer: do not affect tumor growth and survival

Question: Which “tumor growth and survival, combined with anti-PD-L1 antibody” value ([3]; 25 mg/kg i.p. daily) does the source give for GLLSKSLVF [mGF9, murine GF9 peptide] here?
Answer: synergistically inhibits tumor growth and improves survival

Question: With “PTX-GFLSKSLVFPLGEEMRDRARAHVDALRTHLA ({PTX}-GFLSKSLVFPLGEEMRDRARAHVDALRTHLA; reading uncertain; also: printed as PTX-GFLSKSLVFPLGEEMRDRARAHVDALRTHLA) [PTX-TREM-1/TRIOPEP]” as the molecule, how does the “anticancer activity (tumor inhibition, survival rate) as compared to PTX” value (human cancer xenografts) read?
Answer: anticipated to have a significantly higher anticancer activity

Question: What about the “tolerability in cancer mice as compared to PTX” value (human cancer xenografts) of the same molecule?
Answer: anticipated to be substantially better tolerated by cancer mice

Question: For fucoidan [reference compound], which “effect of scavenger receptor inhibitor” value (J774 macrophages) is on record?
Answer: substantially suppressed endocytosis of TREM-1 inhibitor complexes at 22 hours but not at 4 hours

B1: TREM-1-related trifunctional peptide (TREM-1/TRIOPEP) GE31, methionine sulfoxidized (peptide)
peptide: GFLSKSLVFPYLDDFQKKWQEE[Met(O)]ELYRQKVE
modifications: not fully specified; printed as GFLSKSLVFPYLDDFQKKWQEEM(O)ELYRQKVE; also: delivered in spherical synthetic lipopeptide particles (TREM-1/TRIOPEP-sSLP)
notes: In the cytokine assays it was used as an equimolar mixture with GA31; also called TREM-1 modulatory peptide GE31
Question: Does B1 bind [4]?
Answer: binds

B2: TREM-1 inhibitory peptide GF9 (GFLSKSLVF, human TREM-1 213-221) (peptide)
peptide: GFLSKSLVF
modifications: not fully specified
notes: also called TREM-1 modulatory peptide GF9
Question: Does B2 bind [5]?
Answer: binds
